ChEMBL document CHEMBL1146486, “Biologically active compounds from Aphyllophorales (polypore) fungi” (J Nat Prod, 2004)
pIC50: −log10 of the molar value. Converted amounts (≈) assume the structure as drawn.

Columns and labels:
L1210 = assay: Cytotoxicity against mouse L1210 cells; type: functional, cell-based
HeLa = assay: Cytotoxicity against human HeLa cells; type: functional, cell-based
MDCK = assay: Cytotoxicity against MDCK cells; type: cell-based; details: Canis lupus familiaris
[1] = Cytotoxicity against human FL cells; type: functional, cell-based
Protease = Protease (Human immunodeficiency virus 1, UniProt Q9YQ12); assay: Inhibition of HIV1 protease
Sequence of Protease (Q9YQ12 whole entry): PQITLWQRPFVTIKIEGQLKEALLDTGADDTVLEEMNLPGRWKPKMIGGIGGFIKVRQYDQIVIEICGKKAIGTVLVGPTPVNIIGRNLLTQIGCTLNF

[2] = Inhibition of lipid peroxidation; type: functional
[3] = Inhibition of pig brain phospholipase; set-up: species or system Sus scrofa
[4] = Inhibition of NF-kappaB by secreted alkaline phosphatase based reporter gene assay
Liver microsomes = assay: Antioxidant activity in rat liver microsomes assessed as inhibition of lipid peroxidation; type: functional, Microsome
Arthrobacter citreus = assay: Antimicrobial activity against Arthrobacter citreus; type: functional
Bacillus subtilis = assay: Antimicrobial activity against Bacillus subtilis; type: functional
[5] = system: Clavibacter michiganensis subsp. insidiosus; assay: Antimicrobial activity against Corynebacterium insidiosum; type: functional
Kocuria rosea = assay: Antimicrobial activity against Micrococcus roseus; type: functional
Micrococcus luteus = assay: Antimicrobial activity against Sarcina lutea; type: functional
L929 = assay: Cytotoxicity against mouse L929 cells; type: cell-based
Bacillus cereus = assay: Antimicrobial activity against Bacillus cereus; type: functional
Aspergillus niger = assay: Antimicrobial activity against Aspergillus niger; type: functional
Aspergillus flavus = assay: Antimicrobial activity against Aspergillus flavus; type: functional
Amylomyces rouxii = assay: Antimicrobial activity against Mucor rouxii; type: functional
[6] = Cytotoxicity against human KATO III cells; type: functional, cell-based, KATO III cell
[7] = molecular target: Transient receptor potential cation channel subfamily V member 1 (Homo sapiens, UniProt Q8NER1); assay: Inhibition of Vanilloid receptor 1
Sequence of Transient receptor potential cation channel subfamily V member 1 (Q8NER1 whole entry): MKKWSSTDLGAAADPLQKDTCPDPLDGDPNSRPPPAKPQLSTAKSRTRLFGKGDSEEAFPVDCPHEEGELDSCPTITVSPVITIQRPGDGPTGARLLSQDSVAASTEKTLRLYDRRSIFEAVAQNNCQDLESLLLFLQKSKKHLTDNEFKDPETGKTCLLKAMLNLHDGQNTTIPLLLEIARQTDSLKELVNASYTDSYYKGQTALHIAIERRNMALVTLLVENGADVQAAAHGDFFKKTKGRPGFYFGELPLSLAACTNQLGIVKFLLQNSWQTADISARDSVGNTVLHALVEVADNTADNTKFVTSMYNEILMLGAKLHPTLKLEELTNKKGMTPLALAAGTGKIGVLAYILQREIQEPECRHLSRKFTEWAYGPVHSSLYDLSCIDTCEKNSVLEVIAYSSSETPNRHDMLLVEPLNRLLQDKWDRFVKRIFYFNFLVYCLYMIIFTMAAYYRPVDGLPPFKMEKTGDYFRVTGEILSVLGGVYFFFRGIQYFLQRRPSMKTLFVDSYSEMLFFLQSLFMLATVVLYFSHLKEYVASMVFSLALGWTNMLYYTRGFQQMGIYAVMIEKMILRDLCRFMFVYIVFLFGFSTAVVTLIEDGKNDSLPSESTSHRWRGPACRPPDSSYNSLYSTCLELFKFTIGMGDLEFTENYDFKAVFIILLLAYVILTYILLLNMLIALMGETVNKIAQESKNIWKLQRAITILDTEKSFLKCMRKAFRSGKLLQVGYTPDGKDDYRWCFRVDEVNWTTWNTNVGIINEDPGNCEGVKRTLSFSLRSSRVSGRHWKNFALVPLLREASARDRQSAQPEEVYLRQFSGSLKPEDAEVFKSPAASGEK

[8] = Antiplatelet activity assessed as inhibition of ADP-stimulated bovine platelet aggregation; type: functional; details: Bos taurus
[9] = Antiplatelet activity assessed as inhibition of ADP-stimulated human platelet aggregation; type: functional
[10] = Cytotoxicity against mouse Meth-A cells; type: functional; details: read-out: ED50 (the source's name)
CCRF S-180 = assay: Cytotoxicity against mouse S180 cells; type: functional; details: read-out: ED50 (the source's name)
T47D = assay: Cytotoxicity against human T47D cells; type: functional; details: read-out: ED50 (the source's name)
[11] = Cytotoxicity against mouse LLC cells; type: functional; details: Lewis lung carcinoma, read-out: ED50 (the source's name)
Staphylococcus aureus = assay: Antimicrobial activity against Staphylococcus aureus; type: functional
Micrococcus = assay: Antimicrobial activity against Micrococcus flavus; type: functional
Bacillus anthracis = assay: Antimicrobial activity against Bacillus anthracis; type: functional
Alternaria = assay: Antimicrobial activity against Alternaria; type: functional
[12] = Inhibition of DNA synthesis in human ECA cells assessed as blockade of thymidine incorporation; type: functional, cell-based
[13] = Toxicity in mouse at 225 mg/kg; type: organism-based; set-up: dose 225 mg/kg; details: in vivo
Leuconostoc = assay: Antimicrobial activity against Leuconostoc plantarum; type: functional
[14] = Inhibition of almond beta-glucosidase; set-up: species or system Prunus dulcis
HL-60 = assay: Cytotoxicity against human HL60 cells

C=C(C[C@@H](O)[C@](C)(O)[C@H]1CC[C@@]2(O)C3=CC(=O)[C@@H]4C[C@@H](O)[C@@H](O)C[C@]4(C)[C@H]3CC[C@]12C)C(C)C [POLYPORUSTERONE B]
IC50 (L1210): 10 µg/mL (≈ 21 µM)

O=Cc1ccc(O)c(O)c1C=O [FOMECIN B]
IC50 (HeLa): 20 µg/mL (≈ 120 µM)
IC50 (MDCK): 14 µg/mL (≈ 84.3 µM)
IC50 [1]: 17 µg/mL (≈ 102 µM)

C/C(=C\CC[C@@H](C)[C@H]1CC(=O)[C@@]2(C)C3=C(C(=O)C[C@]12C)[C@@]1(C)CC[C@H](O)C(C)(C)[C@@H]1C[C@@H]3O)C(=O)O [GANODERIC ACID BETA]
pIC50 (Protease): 4.70

C=C(C[C@@H](O)[C@@H](C)[C@H]1CC[C@@]2(O)C3=CC(=O)[C@@H]4C[C@@H](O)[C@@H](O)C[C@]4(C)[C@H]3CC[C@]12C)C(C)C [POLYPORUSTERONE G]
IC50 (L1210): 10 µg/mL (≈ 21.7 µM)

COC1=C(c2ccccc2)C(=O)C2=C(C1=O)c1ccccc1CO2 [BETULINAN B]
IC50 [2]: 2.88 µg/mL (≈ 9.05 µM)

CC(=O)O[C@@H]1[C@H](O[C@H](CO)[C@H](O)[C@@H](O)[C@@H](OC(C)=O)C(=O)O[C@H](C)CCCCCCCCCCCCCCCc2cccc(O)c2C(=O)O)O[C@H](CO)[C@@H](O)[C@@H]1O [CALOPOROSIDE]
Ki [3]: 10 µg/mL (≈ 12.2 µM)

CC(C)=C[C@H](O)C1=C[C@@H](O)[C@@H]2O[C@@H]2C1=O [PANEPOXYDONE]
IC50 [4]: 1.5 µg/mL (≈ 7.14 µM)

CC1(C)C=Cc2ccc(O[C@@H]3O[C@H](CO)[C@@H](O)[C@H]3O)cc2O1 [STERIN A]
IC50 (Liver microsomes): 8 µg/mL (≈ 25.9 µM)

CCCCCCCC/C=C\CCCCCCCc1cccc(O)c1C(=O)O [MERULINIC ACID C]
MIC (Arthrobacter citreus): 0.4 µg/mL (≈ 1.07 µM)
MIC (Bacillus subtilis): 0.4 µg/mL (≈ 1.07 µM)
MIC [5]: 0.4 µg/mL (≈ 1.07 µM)
MIC (Kocuria rosea): 0.4 µg/mL (≈ 1.07 µM)
MIC (Micrococcus luteus): 0.4 µg/mL (≈ 1.07 µM)

C=C1[C@@H](O)[C@H]2O[C@]23C[C@H]2CC(C)(C)[C@H](O)[C@H]2[C@]13C [HYPNOPHILIN 1]
IC50 (L929): 0.9 µg/mL (≈ 3.6 µM)

C=C1C(=O)[C@H]2O[C@]23C[C@H]2CC(C)(C)C[C@H]2[C@]13C [DESOXYHYPNOPHILIN]
MIC (Bacillus cereus): 1 µg/mL (≈ 4.3 µM)
MIC (Aspergillus niger): 1 µg/mL (≈ 4.3 µM)
MIC (Aspergillus flavus): 1 µg/mL (≈ 4.3 µM)
MIC (Amylomyces rouxii): 1 µg/mL (≈ 4.3 µM)
IC50 (L929): 2.4 µg/mL (≈ 10.3 µM)

COc1cc(CCCO)cc2cc(-c3ccc4c(c3)OCO4)oc12 [EGONOL]
IC50 [6]: 28.8 µg/mL (≈ 88.2 µM)

CC(C)[C@@H](C)C[C@@H](O)[C@@H](C)[C@H]1CC[C@@]2(O)C3=CC(=O)[C@@H]4C[C@@H](O)[C@@H](O)C[C@]4(C)[C@H]3CC[C@]12C [POLYPORUSTERONE F]
IC50 (L1210): 10 µg/mL (≈ 21.6 µM)

C=C([C@H](O)C[C@H](C)C(C)C)[C@H]1CC[C@@]2(O)C3=CC(=O)[C@@H]4C[C@@H](O)[C@@H](O)C[C@]4(C)[C@H]3CC[C@]12C [POLYPORUSTERONE D]
IC50 (L1210): 10 µg/mL (≈ 21.7 µM)

Cc1cc(O)c(C[C@@H]2[C@@]3(C)CCCC(C)(C)[C@@H]3CC[C@@]2(C)O)c(O)c1 [ALBACONOL]
pIC50 [7]: 5.30

CC1(C)CCC(=O)[C@@H]2[C@@H](C=O)C(C=O)=CC[C@@H]21 [PANUDIAL]
IC30 [8]: 2.5 µg/mL (≈ 10.7 µM)
IC30 [9]: 6 µg/mL (≈ 25.6 µM)

C=C(CC[C@@H](C)[C@H]1CC[C@@]2(C)C3=C(CC[C@]12C)[C@@]1(C)CC[C@H](O)C(C)(C)C1CC3=O)C(C)C=O (stereo partly specified) [LUCIALDEHYDE C]
EC50 [10]: 3.8 µg/mL (≈ 8.11 µM)
EC50 (CCRF S-180): 7.1 µg/mL (≈ 15.1 µM)
EC50 (T47D): 4.7 µg/mL (≈ 10 µM)
EC50 [11]: 10.7 µg/mL (≈ 22.8 µM)

CC(C)C(C)C1O[C@H]1[C@](C)(O)[C@H]1CC[C@@]2(O)C3=CC(=O)[C@@H]4C[C@@H](O)[C@@H](O)C[C@]4(C)[C@H]3CC[C@]12C (stereo partly specified) [POLYPORUSTERONE C]
IC50 (L1210): 10 µg/mL (≈ 21 µM)

CC(C)[C@@H](C)[C@@H]1O[C@H]1[C@@H](C)[C@H]1CC[C@@]2(O)C3=CC(=O)[C@@H]4C[C@@H](O)[C@@H](O)C[C@]4(C)[C@H]3CC[C@]12C [POLYPORUSTERONE E]
IC50 (L1210): 10 µg/mL (≈ 21.7 µM)

CC1(C)C[C@H]2[C@@H]([C@H]1O)[C@@]1(C)[C@@]3(O[C@@H]3C(=O)[C@@]13CO3)[C@H]2O [CORIOLIN]
MIC (Staphylococcus aureus): 12.5 µg/mL (≈ 44.6 µM)
MIC (Micrococcus): 12.5 µg/mL (≈ 44.6 µM)
MIC (Bacillus anthracis): 12.5 µg/mL (≈ 44.6 µM)

Cc1oc(=O)c2c(O)cccc2c1C [OOSPOLACTONE]
MIC (Alternaria): 12.5 µg/mL (≈ 65.7 µM)

C=C1C(=O)[C@H](OC(C)=O)/C=C(\C)C(=O)[C@H](O)[C@@H]2[C@@H]1CC2(C)C [NAEMATOLON]
IC50 [12]: 2 µg/mL (≈ 6.53 µM)
LD50 [13]: 225 mg/kg

C=C1C(=O)[C@H]2O[C@]23C[C@H]2CC(C)(C)[C@H](O)[C@H]2[C@]13C [HYPNOPHILIN]
MIC (Bacillus cereus): 1 µg/mL (≈ 4.03 µM)
MIC (Aspergillus niger): 1 µg/mL (≈ 4.03 µM)
MIC (Aspergillus flavus): 1 µg/mL (≈ 4.03 µM)
MIC (Amylomyces rouxii): 1 µg/mL (≈ 4.03 µM)

COC1=C(c2ccccc2)C(=O)C(OC)=C(c2ccccc2)C1=O [BETULINAN A]
IC50 [2]: 0.46 µg/mL (≈ 1.44 µM)

CC(O)CCCCCC/C=C\CCCCCCCc1cccc(O)c1C(=O)O (stereo unspecified) [MERULINIC ACID B]
MIC (Arthrobacter citreus): 0.4 µg/mL (≈ 1.02 µM)
MIC (Bacillus subtilis): 0.4 µg/mL (≈ 1.02 µM)
MIC [5]: 0.4 µg/mL (≈ 1.02 µM)
MIC (Kocuria rosea): 0.4 µg/mL (≈ 1.02 µM)
MIC (Micrococcus luteus): 0.4 µg/mL (≈ 1.02 µM)

CC(C)C(C)C[C@@H](O)[C@](C)(O)[C@H]1CC[C@@]2(O)C3=CC(=O)[C@@H]4C[C@@H](O)[C@@H](O)C[C@]4(C)[C@H]3CC[C@]12C (stereo partly specified) [POLYPORUSTERONE A]
IC50 (L1210): 10 µg/mL (≈ 20.9 µM)

Nc1c(C(=O)O)c2nc3c(CO)cccc3oc-2cc1=O [CINNABARIN]
MIC (Bacillus cereus): 62.5 µg/mL (≈ 218 µM)
MIC (Leuconostoc): 62.5 µg/mL (≈ 218 µM)

COc1cc(CCCO[C@@H]2O[C@H](CO)[C@@H](O)[C@H](O)[C@H]2O)cc2cc(-c3ccc4c(c3)OCO4)oc12 [EGONOL GLUCOSIDE]
IC50 [6]: 24.9 µg/mL (≈ 51 µM)

OCCCc1ccc2oc(-c3ccc4c(c3)OCO4)cc2c1 [DEMETHOXYEGONOL]
IC50 [6]: 27.5 µg/mL (≈ 92.8 µM)

OC[C@@H]1[C@@H](O)[C@H](O)[C@@H](O)[C@@H]2O[C@H]12 [CYCLOPHELLITOL]
IC50 [14]: 0.8 µg/mL (≈ 4.54 µM)

CCCCCCCC/C=C\CCCCCCCc1cc(O)cc(O)c1C(=O)O [MERULINIC ACID A]
MIC (Arthrobacter citreus): 0.4 µg/mL (≈ 1.02 µM)
MIC (Bacillus subtilis): 0.4 µg/mL (≈ 1.02 µM)
MIC [5]: 0.4 µg/mL (≈ 1.02 µM)
MIC (Kocuria rosea): 0.4 µg/mL (≈ 1.02 µM)
MIC (Micrococcus luteus): 0.4 µg/mL (≈ 1.02 µM)

C=C(C)[C@@H]1CCC2=C(CC[C@]3(C)[C@@H]([C@@H](CCC=C(C)C)C(=O)O)[C@H](O)C[C@@]23C)[C@@]1(C)CCC(=O)O [PORICOIC ACID G]
GI50 (HL-60): 0.0393 µM
